# Target: mTOR/GbL/Raptor (mTORC1) (Homo sapiens, UniProt P42345)
# Test: mTOR/GbL/Raptor (mTORC1) ELISA assay
# Type: biochemical
# Conditions: phosphorylation of 4E-BP1; 0.2 nM mTORC1, 10 μM ATP; read-out: IC50 in this assay (mTORC1 ELISA)
# How it was run: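 ELISA read-out: phospho-4E-BP1 captured on Ni-chelate plates and detected with anti-phospho antibody plus HRP-anti-IgG luminescence. The kinase step ran 120 min at ambient temperature with 0.2 nM human mTORC1, 10 µM ATP, 50 nM His-4E-BP1, 10 mM MnCl2, pH 7.2 HEPES.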
row,SMILES,IC50 [nM]
1,"CC1(C)CCc2ncnc(N3CCOc4ccc(-c5cnc(Cl)c(NS(C)(=O)=O)c5)cc4C3)c2C1 [Example 623, N-{2-chloro-5-[4-(6,6-dimethyl-5,6,7,8-tetrahydroquinazolin-4-yl)-2,3,4,5-tetrahydro-1,4-benzoxazepin-7-yl]pyridin-3-yl}methanesulfonamide]",10 to 50
2,"CN(c1cc(-c2ccc3c(c2)CN(c2ncnc4c2CC(C)(C)CC4)CCO3)cnc1Cl)S(C)(=O)=O [Example 624, N-{2-chloro-5-[4-(6,6-dimethyl-5,6,7,8-tetrahydroquinazolin-4-yl)-2,3,4,5-tetrahydro-1,4-benzoxazepin-7-yl]pyridin-3-yl}-N-methylmethanesulfonamide]",250 to 1000
3,"CCOc1ncc(-c2ccc3c(c2)CN(c2ncnc4c2CC(C)(C)CC4)CCO3)cc1NS(C)(=O)=O [Example 626, N-{5-[4-(6,6-dimethyl-5,6,7,8-tetrahydroquinazolin-4-yl)-2,3,4,5-tetrahydro-1,4-benzoxazepin-7-yl]-2-(ethyloxy)pyridin-3-yl}methanesulfonamide]",10 to 50
4,"CNc1ncc(-c2ccc3c(c2)CN(c2ncnc4c2CC(C)(C)CC4)CCO3)cc1NS(C)(=O)=O [Example 627, N-{5-[4-(6,6-dimethyl-5,6,7,8-tetrahydroquinazolin-4-yl)-2,3,4,5-tetrahydro-1,4-benzoxazepin-7-yl]-2-(methylamino)pyridin-3-yl}methanesulfonamide]",50 to 250
5,"COc1ncc(-c2ccc3c(c2)CN(c2ncnc4c2CC(C)(C)CC4)CCO3)cc1NS(C)(=O)=O [Example 628, N-{5-[4-(6,6-dimethyl-5,6,7,8-tetrahydroquinazolin-4-yl)-2,3,4,5-tetrahydro-1,4-benzoxazepin-7-yl]-2-(methyloxy)pyridin-3-yl}methanesulfonamide]",10 to 50
6,"CC1(C)CCc2ncnc(N3CCOc4ccc(-c5cnc(Nc6ccccc6)c(NS(C)(=O)=O)c5)cc4C3)c2C1 [Example 629, N-{5-[4-(6,6-dimethyl-5,6,7,8-tetrahydroquinazolin-4-yl)-2,3,4,5-tetrahydro-1,4-benzoxazepin-7-yl]-2-(phenylamino)pyridin-3-yl}methanesulfonamide]",250 to 1000
7,"CC1(C)CCc2ncnc(N3CCOc4ccc(-c5cnc(F)c(NS(C)(=O)=O)c5)cc4C3)c2C1 [Example 632, N-{5-[4-(6,6-dimethyl-5,6,7,8-tetrahydroquinazolin-4-yl)-2,3,4,5-tetrahydro-1,4-benzoxazepin-7-yl]-2-fluoropyridin-3-yl}methanesulfonamide]",250 to 1000
8,"Cc1ncc(-c2ccc3c(c2)CN(c2ncnc4c2CC(C)(C)CC4)CCO3)cc1NS(C)(=O)=O [Example 633, N-{5-[4-(6,6-dimethyl-5,6,7,8-tetrahydroquinazolin-4-yl)-2,3,4,5-tetrahydro-1,4-benzoxazepin-7-yl]-2-methylpyridin-3-yl}methanesulfonamide]",50 to 250
9,"CNCCN(C)c1ncnc(N2CCOc3ccc(-c4cnc5nc(C6CC6)[nH]c5c4)cc3C2)c1C [Example 635, N-{6-[7-(2-cyclopropyl-1H-imidazo[4,5-b]pyridin-6-yl)-2,3-dihydro-1,4-benzoxazepin-4(5H)-yl]-5-methylpyrimidin-4-yl}-N,N′-dimethylethane-1,2-diamine]",250 to 1000
10,"CCNc1ncnc(N2CCOc3ccc(-c4cnc5nc(C)[nH]c5c4)cc3C2)c1C [Example 639, N-ethyl-5-methyl-6-[7-(2-methyl-1H-imidazo[4,5-b]pyridin-6-yl)-2,3-dihydro-1,4-benzoxazepin-4(5H)-yl]pyrimidin-4-amine]",250 to 1000
11,"CCNc1nc2ncc(-c3ccc4c(c3)CN(c3nc(C)nc5cc(OC)ccc35)CCO4)cc2[nH]1 [Example 642, N-ethyl-6-{4-[2-methyl-7-(methyloxy)quinazolin-4-yl]-2,3,4,5-tetrahydro-1,4-benzoxazepin-7-yl}-1H-imidazo[4,5-b]pyridin-2-amine]",10 to 50
12,"CCNc1nc2ccc(-c3ccc4c(c3)CN(c3ncnc(NCC)c3C)CCO4)cc2[nH]1 [Example 643, N-ethyl-6-{4-[6-(ethylamino)-5-methylpyrimidin-4-yl]-2,3,4,5-tetrahydro-1,4-benzoxazepin-7-yl}-1H-benzimidazol-2-amine]",250 to 1000
13,"COc1ccc(-c2ccc3c(c2)CN(c2nc(CN(C)C)nc4c2CC(C)(C)CC4)CCO3)cc1S(C)(=O)=O [Example 652, 1-(6,6-dimethyl-4-{7-[4-(methyloxy)-3-(methylsulfonyl)phenyl]-2,3-dihydro-1,4-benzoxazepin-4(5H)-yl}-5,6,7,8-tetrahydroquinazolin-2-yl)-N,N-dimethylmethanamine]",250 to 1000
14,"C=CCc1c(C)nc(CN(C)C)nc1N1CCOc2ccc(-c3ccc4nc(C)[nH]c4c3)cc2C1 [Example 654, N,N-dimethyl-1-{4-methyl-6-[7-(2-methyl-1H-benzimidazol-6-yl)-2,3-dihydro-1,4-benzoxazepin-4(5H)-yl]-5-prop-2-en-1-ylpyrimidin-2-yl}methanamine]",50 to 250
15,"CCCc1c(C)nc(CN(C)C)nc1N1CCOc2ccc(-c3cnc4sc(N)nc4c3)cc2C1 [Example 657, 6-(4-{2-[(dimethylamino)methyl]-6-methyl-5-propylpyrimidin-4-yl}-2,3,4,5-tetrahydro-1,4-benzoxazepin-7-yl)[1,3]thiazolo[5,4-b]pyridin-2-amine]",50 to 250

# Results, then the compound that gave them:
row,IC50 [nM],SMILES
1,50 to 250,"CC1(C)CCc2ncnc(N3CCOc4ccc(-c5cnc(C#N)c(NS(C)(=O)=O)c5)cc4C3)c2C1 [Example 625, N-{2-cyano-5-[4-(6,6-dimethyl-5,6,7,8-tetrahydroquinazolin-4-yl)-2,3,4,5-tetrahydro-1,4-benzoxazepin-7-yl]pyridin-3-yl}methanesulfonamide]"
2,≥ 2000,"CC1(C)CCc2ncnc(N3CCOc4ccc(-c5cnc(OCc6ccccc6)c(NS(C)(=O)=O)c5)cc4C3)c2C1 [Example 631, N-{5-[4-(6,6-dimethyl-5,6,7,8-tetrahydroquinazolin-4-yl)-2,3,4,5-tetrahydro-1,4-benzoxazepin-7-yl]-2-[(phenylmethyl)oxy]pyridin-3-yl}methanesulfonamide]"
3,250 to 1000,"CC1(C)CCc2ncnc(N3CCOc4ccc(-c5cncc(NS(C)(=O)=O)c5)cc4C3)c2C1 [Example 634, N-{5-[4-(6,6-dimethyl-5,6,7,8-tetrahydroquinazolin-4-yl)-2,3,4,5-tetrahydro-1,4-benzoxazepin-7-yl]pyridin-3-yl}methanesulfonamide]"
4,10 to 50,"CC1(C)CCc2ncnc(N3CCOc4ccc(-c5cnc(N)c(S(=O)(=O)NCC(N)=O)c5)cc4C3)c2C1 [Example 636, N~2~-({2-amino-5-[4-(6,6-dimethyl-5,6,7,8-tetrahydroquinazolin-4-yl)-2,3,4,5-tetrahydro-1,4-benzoxazepin-7-yl]pyridin-3-yl}sulfonyl)glycinamide]"
5,250 to 1000,"CCNc1nc(C)nc(N2CCOc3ccc(-c4cnc5nc(C)[nH]c5c4)cc3C2)c1C [Example 637, N-ethyl-2,5-dimethyl-6-[7-(2-methyl-1H-imidazo[4,5-b]pyridin-6-yl)-2,3-dihydro-1,4-benzoxazepin-4(5H)-yl]pyrimidin-4-amine]"
6,250 to 1000,"CCNc1nc2ccc(-c3ccc4c(c3)CN(c3ncnc(Nc5ccc(OC)cc5)c3C)CCO4)cc2[nH]1 [Example 640, N-ethyl-6-[4-(5-methyl-6-{[4-(methyloxy)phenyl]amino}pyrimidin-4-yl)-2,3,4,5-tetrahydro-1,4-benzoxazepin-7-yl]-1H-benzimidazol-2-amine]"
7,250 to 1000,"COCCOc1cc(-c2ccc3c(c2)CN(c2nc(CN(C)C)nc4c2CC(C)(C)CC4)CCO3)ccc1OC [Example 648, 1-(6,6-dimethyl-4-{7-[4-(methyloxy)-3-{[2-(methyloxy)ethyl]oxy}phenyl]-2,3-dihydro-1,4-benzoxazepin-4(5H)-yl}-5,6,7,8-tetrahydroquinazolin-2-yl)-N,N-dimethylmethanamine]"
8,250 to 1000,"COc1ccc(-c2ccc3c(c2)CN(c2nc(CN(C)C)nc4c2CC(C)(C)CC4)CCO3)cc1OC(F)F [Example 649, 1-{4-[7-{3-[(difluoromethyl)oxy]-4-(methyloxy)phenyl}-2,3-dihydro-1,4-benzoxazepin-4(5H)-yl]-6,6-dimethyl-5,6,7,8-tetrahydroquinazolin-2-yl}-N,N-dimethylmethanamine]"
9,50 to 250,"COc1ccc(-c2ccc3c(c2)CN(c2nc(CN(C)C)nc4c2CC(C)(C)CC4)CCO3)cc1C(C)=O [Example 650, 1-[5-(4-{2-[(dimethylamino)methyl]-6,6-dimethyl-5,6,7,8-tetrahydroquinazolin-4-yl}-2,3,4,5-tetrahydro-1,4-benzoxazepin-7-yl)-2-(methyloxy)phenyl]ethanone]"
10,≤ 10,"Cc1nc(N)nc(N2CCOc3ccc(-c4ccc5[nH]cnc5c4)cc3C2)c1Cc1ccc(F)cc1 [Example 651, 4-[7-(1H-benzimidazol-5-yl)-2,3-dihydro-1,4-benzoxazepin-4(5H)-yl]-5-[(4-fluorophenyl)methyl]-6-methylpyrimidin-2-amine]"
11,250 to 1000,"CCCc1c(C)nc(CN(C)C)nc1N1CCOc2ccc(-c3ccc4nc(C)[nH]c4c3)cc2C1 [Example 653, N,N-dimethyl-1-{4-methyl-6-[7-(2-methyl-1H-benzimidazol-6-yl)-2,3-dihydro-1,4-benzoxazepin-4(5H)-yl]-5-propylpyrimidin-2-yl}methanamine]"
12,250 to 1000,"Cc1nc2cc(-c3ccc4c(c3)CN(c3nc(CN(C)C)nc(C)c3CC(C)C)CCO4)ccc2[nH]1 [Example 655, N,N-dimethyl-1-{4-methyl-6-[7-(2-methyl-1H-benzimidazol-5-yl)-2,3-dihydro-1,4-benzoxazepin-4(5H)-yl]-5-(2-methylpropyl)pyrimidin-2-yl}methanamine]"
13,250 to 1000,"COc1ccc(-c2ccc3c(c2)CN(c2nc(CN(C)C)nc(C)c2C(C)C)CCO3)cc1NS(C)(=O)=O [Example 656, N-[5-(4-{2-[(dimethylamino)methyl]-6-methyl-5-(1-methylethyl)pyrimidin-4-yl}-2,3,4,5-tetrahydro-1,4-benzoxazepin-7-yl)-2-(methyloxy)phenyl]methane-sulfonamide]"

# From patent US8648066B2 (Exelixis, Inc., priority 2009, dated 2014)
